Laboratory results taken from ChEMBL document CHEMBL1201862, “PubChem BioAssay data set” (2004).
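Step 1: Grow cells in 96-well plates. Step 2: Expose to compound for 48 hours at 5 concentrations. Step 3: Interpolate endpoints linearly; if unreached, use highest concentration. GI50 = concentration required for 50% inhibition of growth.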 Activity calls are given as the source filed them. Rule as the data show it: active = GI50 up to about 1.1 µM and inactive = higher.

Tests used:
Assay in all cases: growth of human tumour cells (NCI), 48 h
[1] = tested on: HCT-116
[2] = tested on: NCI-H460
[3] = tested on: SW-620
[4] = tested on: UACC-62
[5] = tested on: MOLT-4
[6] = tested on: RPMI-8226
[7] = tested on: HCC 2998
[8] = tested on: SN12C
[9] = tested on: U-251
[10] = tested on: SR
[11] = tested on: SF-295
[12] = tested on: RXF 393
[13] = tested on: TK-10
[14] = tested on: OVCAR-4
[15] = tested on: LOX IMVI
[16] = tested on: SF-539
[17] = tested on: OVCAR-3

Measured: GI50

CC(=O)C(C(=O)C(=O)Nc1cc(Cl)c(Cl)cc1Cl)c1csc(N)n1 (stereo unspecified)
inactive: [1] > 100 µM | [2] > 100 µM | [3] > 100 µM | [4] > 100 µM | [5] > 100 µM | [6] > 100 µM | [7] > 100 µM | [8] > 100 µM | [9] > 100 µM | [10] > 100 µM | [11] > 100 µM | [12] > 100 µM | [13] > 100 µM | [14] > 100 µM | [15] > 100 µM | [16] > 100 µM

CC(=O)OC1(C#N)CC2OC1C1C2N1C(=O)c1ccccc1 (stereo unspecified)
inactive: [1] > 100 µM | [2] > 100 µM | [3] > 100 µM | [4] > 100 µM | [5] > 100 µM | [6] > 100 µM | [7] > 100 µM | [8] > 100 µM | [9] > 100 µM | [12] > 100 µM | [13] > 100 µM | [14] > 100 µM | [15] > 100 µM | [16] > 100 µM

N#CC(C(=O)CCC(=O)Nc1cccc(Cl)c1)c1ccccc1 (stereo unspecified)
inactive: [1] > 100 µM | [2] > 100 µM | [17] > 100 µM | [4] > 100 µM | [5] > 100 µM | [6] > 100 µM | [7] > 100 µM | [8] > 100 µM | [9] > 100 µM | [10] > 100 µM | [11] > 100 µM | [12] > 100 µM | [13] > 100 µM | [14] > 100 µM | [15] > 100 µM | [16] > 100 µM

Cc1[nH]c2cc([N+](=O)[O-])ccc2c1[N+](=O)[O-]
inactive: [2] 20.6 µM | [17] 25.1 µM | [3] 25.2 µM | [5] 19.5 µM | [6] 10.5 µM | [7] 15 µM | [8] 25.6 µM | [9] 19.9 µM | [11] 17.3 µM | [12] 13.6 µM | [13] 29.7 µM | [14] 14.1 µM | [15] 24.6 µM | [16] 18.8 µM

CCCOC(=O)C1C(c2ccc(OC)cc2)NC(c2ccc(OC)cc2)C(C(=O)OCCC)S1(=O)=O (stereo unspecified)
inactive: [1] > 10 µM | [2] > 10 µM | [17] > 10 µM | [3] > 10 µM | [4] > 10 µM | [5] > 10 µM | [6] > 10 µM | [7] > 10 µM | [8] > 10 µM | [9] > 10 µM | [10] > 100 µM | [11] > 10 µM | [12] > 10 µM | [13] > 10 µM | [14] > 10 µM | [15] > 10 µM | [16] > 10 µM

O=c1nc2occc2cn1C1CC(O)C(CO)O1 (stereo unspecified)
inactive: [1] > 100 µM | [2] > 100 µM | [17] > 100 µM | [3] > 100 µM | [4] > 100 µM | [5] > 100 µM | [6] > 100 µM | [7] > 100 µM | [8] > 100 µM | [9] > 100 µM | [10] > 100 µM | [11] > 100 µM | [12] > 100 µM | [13] > 100 µM | [14] > 100 µM | [15] > 100 µM | [16] > 100 µM

CCCCN[C@H]1C2C3CC4C5CC(C42)C1(C)C53 (stereo partly specified)
inactive: [1] > 100 µM | [2] > 100 µM | [17] > 100 µM | [3] > 100 µM | [4] > 100 µM | [5] > 100 µM | [6] > 100 µM | [7] > 100 µM | [8] > 100 µM | [9] > 100 µM | [10] > 100 µM | [11] > 100 µM | [12] > 100 µM | [13] > 100 µM | [14] > 100 µM | [15] > 100 µM | [16] > 100 µM

Cc1cc(NCCCCCCCNc2cc(C)nc3cc(N)ccc23)c2ccc(N)cc2n1
inactive: [1] 27.6 µM | [2] 27.2 µM | [17] 44 µM | [4] 35.5 µM | [5] 33.4 µM | [6] 14.8 µM | [7] 46.2 µM | [8] 10.5 µM | [9] 28.1 µM | [10] 18.6 µM | [11] 10.3 µM | [12] 79.3 µM | [13] > 100 µM | [14] 72.3 µM | [15] 21.6 µM | [16] 27 µM

Cc1ccc(C)c(NC(=O)C(=O)C2C(=O)N(c3ccccc3)N=C2N)c1 (stereo unspecified)
inactive: [1] > 100 µM | [2] > 100 µM | [17] > 100 µM | [3] > 100 µM | [4] > 100 µM | [5] > 100 µM | [6] > 100 µM | [7] > 100 µM | [8] > 100 µM | [9] > 100 µM | [11] > 100 µM | [12] > 100 µM | [13] > 100 µM | [14] > 100 µM | [15] > 100 µM | [16] > 100 µM

NC(=S)N1N=C2c3ccccc3CC[C@H]2[C@@H]1c1ccc(Cl)cc1
inactive: [1] 15.5 µM | [2] 27 µM | [17] 28.2 µM | [3] 38.4 µM | [4] 27.9 µM | [5] 18.9 µM | [6] 18.6 µM | [7] 36.7 µM | [8] 30.6 µM | [9] 37.8 µM | [10] 26.2 µM | [11] 26.7 µM | [12] 30 µM | [13] 45.7 µM | [14] 30.8 µM | [15] 34.8 µM | [16] 41.7 µM

CC(=O)/C=C1/c2ccccc2N(C(C)=O)C1O (stereo unspecified)
inactive: [1] > 100 µM | [2] > 100 µM | [17] > 100 µM | [3] > 100 µM | [4] > 100 µM | [5] > 100 µM | [6] > 100 µM | [7] > 100 µM | [8] > 100 µM | [9] > 100 µM | [10] > 100 µM | [11] > 100 µM | [12] > 100 µM | [14] > 100 µM | [16] > 100 µM

Cc1cc(C)c(N)c(C)c1N
inactive: [1] > 100 µM | [2] > 100 µM | [17] > 100 µM | [3] > 100 µM | [4] > 100 µM | [5] > 100 µM | [6] > 100 µM | [7] > 100 µM | [8] > 100 µM | [9] > 100 µM | [10] > 100 µM | [11] > 100 µM | [12] > 100 µM | [13] > 100 µM | [15] > 100 µM | [16] > 100 µM

C=CCN(N=O)C(=O)NCCCCC(NC(C)=O)C(=O)NCc1ccccc1 (stereo unspecified)
inactive: [2] > 100 µM | [17] > 100 µM | [3] > 100 µM | [4] > 100 µM | [5] > 100 µM | [6] > 100 µM | [8] > 100 µM | [9] > 100 µM | [11] > 100 µM | [12] > 100 µM | [13] > 100 µM | [14] > 100 µM | [15] > 100 µM | [16] > 100 µM

CC12Nc3ccccc3C1=C(c1ccccc1)CC1C(=O)OC(=O)C12 (stereo unspecified)
inactive: [1] > 100 µM | [2] > 100 µM | [17] > 100 µM | [3] > 100 µM | [4] > 100 µM | [5] > 100 µM | [6] > 100 µM | [7] > 100 µM | [8] > 100 µM | [9] > 100 µM | [11] > 100 µM | [12] > 100 µM | [13] > 100 µM | [14] > 100 µM | [15] > 100 µM | [16] > 100 µM

O=C1CCC(=O)N1Sc1ccccc1
inactive: [1] > 100 µM | [2] > 100 µM | [17] > 100 µM | [3] > 100 µM | [4] > 100 µM | [5] > 100 µM | [6] > 100 µM | [8] > 100 µM | [9] > 100 µM | [11] > 100 µM | [12] > 100 µM | [13] > 100 µM | [14] > 100 µM | [15] > 100 µM | [16] > 100 µM

COc1ccc(C2=C(Cl)c3cc(OC)c(OC)cc3C2OC)cc1OC (stereo unspecified)
inactive: [1] 95.7 µM | [2] > 100 µM | [3] 19.5 µM | [4] > 100 µM | [5] > 100 µM | [6] 23.8 µM | [7] > 100 µM | [8] > 100 µM | [11] > 100 µM | [12] > 100 µM | [13] > 100 µM | [14] > 100 µM | [15] 50.2 µM | [16] 65.2 µM

O=NN(CCCl)C(=O)N[C@H]1CCCC[C@@H]1Cl
inactive: [1] 50.6 µM | [2] 29.4 µM | [17] > 100 µM | [3] > 100 µM | [5] 32.4 µM | [6] 43.8 µM | [7] > 100 µM | [8] 88.1 µM | [9] 30.4 µM | [10] 3.48 µM | [11] 47.1 µM | [12] > 100 µM | [13] > 100 µM | [14] > 100 µM | [16] 24.9 µM

c1ccc2c(c1)n1nnnc1c1nnnn21
inactive: [1] > 100 µM | [2] > 100 µM | [17] > 100 µM | [3] > 100 µM | [4] > 100 µM | [5] > 100 µM | [6] > 100 µM | [7] > 100 µM | [8] > 100 µM | [9] > 100 µM | [11] 77.8 µM | [12] 87.3 µM | [13] > 100 µM | [14] 32.4 µM | [15] 33.5 µM | [16] 78.9 µM
